US5206135A, “Use of the oxygenase activity of acetolactate synthase for herbicide detection” (E. I. Du Pont de Nemours and Company, priority 1990, dated 1993)

Experiments:
Assay type in all cases: biochemical
acetolactate synthase [1] = target: T1, acetolactate synthase (Escherichia coli, UniProt P0DP90); assay: Oxygenase activity of acetolactate synthase with different substrates (oxygen-sensitive electrode)
T1 sequence (P0DP90 1-548): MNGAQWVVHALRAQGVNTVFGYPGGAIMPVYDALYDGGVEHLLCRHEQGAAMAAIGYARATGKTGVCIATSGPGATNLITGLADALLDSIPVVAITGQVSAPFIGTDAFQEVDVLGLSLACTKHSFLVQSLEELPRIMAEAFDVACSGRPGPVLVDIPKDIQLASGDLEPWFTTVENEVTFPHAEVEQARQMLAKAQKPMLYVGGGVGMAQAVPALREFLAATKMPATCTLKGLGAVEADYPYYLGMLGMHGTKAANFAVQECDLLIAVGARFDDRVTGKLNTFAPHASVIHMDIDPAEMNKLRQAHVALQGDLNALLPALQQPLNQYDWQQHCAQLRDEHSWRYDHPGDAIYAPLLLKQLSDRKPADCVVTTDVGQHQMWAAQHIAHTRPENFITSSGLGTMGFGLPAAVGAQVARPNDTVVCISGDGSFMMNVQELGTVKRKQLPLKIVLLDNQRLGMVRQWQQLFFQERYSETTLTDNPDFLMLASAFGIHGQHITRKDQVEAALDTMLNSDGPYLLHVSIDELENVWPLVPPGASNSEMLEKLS
T1 sequence (P0ADG1 1-87 partner): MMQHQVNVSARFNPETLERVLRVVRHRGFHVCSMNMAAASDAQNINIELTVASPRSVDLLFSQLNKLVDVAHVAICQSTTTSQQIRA
Method: (§1) To a 1 ml solution containing 0.1 M tricine-NaOH, pH 8, 10 mM MgCl2, 0.1 mM thiamine pyrophosphate, and 0.1 mM flavin adenine dinucleotide were added various concentrations of pyruvate (10 μM to 10 mM), α-keto-butyrate (10 μM to 80 mM), or acetolactate (0.15 to 5.5 mM). After allowing the solution to equilibrate with air (21 % O2), the level of dissolved oxygen was monitored by use of a commercially available oxygen-sensitive electrode (Hansatech) and polarographic electronics as described by Sweet et al. (Analytical Biochemistry 107:337 (1980)). In the absence of further additions, negligible oxygen was consumed over a 30 minute period. To initiate the consumption of oxygen, 20 μl of a 2 mg/ml stock solution of acetolactate synthase was added if pyruvate or α-acetolactate were used as substrate, or 5 μl of a 49 mg/ml stock solution of acetolactate synthase was added if α-ketobutyrate was used as substrate. The limiting rate of oxygen consumption at saturating concentrations of pyruvate, α-ketobutyrate, or α-acetolactate are illustrated in Table 1. The concentrations of α-acetolactate or α-ketobutyrate that gave half of the maximum rate (the Michaelis constant) were 1.4 mM and 32 μM, respectively.

acetolactate synthase [2] = target: T1, acetolactate synthase; assay: Sensitivity of the oxygenase activity of acetolactate synthase to herbicides (oxygen-sensitive electrode); conditions: 100 μM pyruvate as substrate; rate of oxygen consumption; pH 8; read-out: Concentration that Gives 50% Inhibition
Method: as §1, with “The concentrations of α-acetolactate or α-ketobutyrate that gave half of the maximum rate (the Michaelis constant) were 1.4 mM and 32 μM, respectively.” left out
Assays were conducted as described under Examples 1-3, except that 100 μM pyruvate was used as substrate. […] These values are similar to previously reported values (Schloss et al. Nature 331:360 (1988)) for inhibition of the enzyme monitored by use of the known acetolactate-forming reaction.

[3] = substrate: CC(=O)C(C)(O)C(=O)O; assay: Oxygenase activity of acetolactate synthase with different substrates (oxygen-sensitive electrode); conditions: other: oxygen consumption, pH 8, air-equilibrated
Method: as §1

[4] = substrate: CCC(=O)C(=O)O; assay: as above; conditions: other: oxygen consumption, pH 8, air-equilibrated
Method: as §1

CC(=O)C(=O)O [Pyruvate]
Km (acetolactate synthase [1]; oxygen consumption, pH 8, air-equilibrated, read-out: Concentration that gave half of the maximum rate (the Michaelis constant)): < 10 µM

COc1nc(C)nc(NC(=O)NS(=O)(=O)c2ccccc2Cl)n1 [chlorsulfuron]
IC50 (acetolactate synthase [2]): 0.5 µM

COC(=O)c1ccccc1S(=O)(=O)NC(=O)Nc1nc(C)cc(C)n1 [sulfometuron methyl]
IC50 (acetolactate synthase [2]): 1 µM

CC(=O)C(C)(O)C(=O)O (stereo not drawn) [α-Acetolactate]
Maximum rate (μmoles of oxygen consumed/mg enzyme/min) (acetolactate synthase [1]; limiting rate of oxygen consumption at saturating substrate, 0.1 M tricine-NaOH pH 8, air-equilibrated (21 % O2)): 0.20 μmoles of oxygen consumed/mg e

B1: acetolactate synthase (Escherichia coli K-12) (protein)
chain: T1 sequence (P0DP90 1-548)
Km [3]: 1400 µM | Km [4]: 32 µM
